Several values for one entry are separate records, joined by “and”; a condition that tells them apart may be missing. Identical values can stand only once. Inconclusive results and toxic doses are left out.
Test system: BDF1 mice, L1210 terephthalanilide-resistant leukemia ip, survival T/C
Test: NCI In Vivo Anticancer Drug Screen. Data for tumor model L1210 Leukemia resistant to A Terephthalanilide; NSC 38280 (intraperitoneal) in B6D2F1 (BDF1) mice
Conditions: endpoint: mean survival time, higher = longer survival
Description: The antitumor activity of compounds was measured in mice bearing transplantable tumors. Survival or tumor size were measured and the results are expressed as the measurement made in the treated group (T) divided by the measurement made in the vehicle treated control group (C). The tumor model used in this assay is L1210 Leukemia resistant to A Terephthalanilide; NSC 38280 (intraperitoneal) in B6D2F1 (BDF1) mice

[1] = dose: 1.0 mg/kg/injection, schedule: Q01DX010 (ip), vehicle: saline
[2] = dose: 4.0 mg/kg/injection, schedule: Q01DX010 (ip), vehicle: other
[3] = dose: 8.0 mg/kg/injection, schedule: Q01DX010 (ip), vehicle: other
[4] = dose: 8.0 mg/kg/injection, schedule: Q01DX010 (ip), vehicle: saline
[5] = dose: 5.0 mg/kg/injection, schedule: Q01DX010 (ip), vehicle: saline
[6] = dose: 6.25 mg/kg/injection, schedule: Q01DX Z (ip), vehicle: carboxymethylcellulose (CMC)
[7] = dose: 10.0 mg/kg/injection, schedule: Q01DX010 (ip), vehicle: saline
[8] = dose: 12.5 mg/kg/injection, schedule: Q01DX Z (ip), vehicle: carboxymethylcellulose (CMC)
[9] = dose: 20.0 mg/kg/injection, schedule: Q01DX010 (ip), vehicle: saline
[10] = dose: 25.0 mg/kg/injection, schedule: Q01DX Z (ip), vehicle: carboxymethylcellulose (CMC)
[11] = dose: 40.0 mg/kg/injection, schedule: Q01DX010 (ip), vehicle: saline
[12] = dose: 100.0 mg/kg/injection, schedule: Q01DX Z (ip), vehicle: carboxymethylcellulose (CMC)
[13] = dose: 37.5 mg/kg/injection, schedule: Q01DX Z (ip), vehicle: carboxymethylcellulose (CMC)
[14] = dose: 50.0 mg/kg/injection, schedule: Q01DX Z (ip), vehicle: carboxymethylcellulose (CMC)
[15] = dose: 16.0 mg/kg/injection, schedule: Q01DX010 (ip), vehicle: saline
[16] = dose: 32.0 mg/kg/injection, schedule: Q01DX010 (ip), vehicle: saline
[17] = dose: 64.0 mg/kg/injection, schedule: Q01DX010 (ip), vehicle: saline
[18] = dose: 37.5 mg/kg/injection, schedule: Q01DX Z (ip), vehicle: saline
[19] = dose: 75.0 mg/kg/injection, schedule: Q01DX Z (ip), vehicle: saline

C[C@@H]1C[C@H]2CC[C@H](O2)[C@H](C)C(=O)O[C@@H](C)C[C@@H]2CC[C@@H](O2)[C@@H](C)C(=O)O[C@H](C)C[C@H]2CC[C@H](O2)[C@H](C)C(=O)O[C@@H](C)C[C@@H]2CC[C@@H](O2)[C@@H](C)C(=O)O1
T/C (dose: 45.0 mg/kg/injection, schedule: Q01DX Z (ip), vehicle: carboxymethylcellulose (CMC)): 92 % of control | T/C (dose: 90.0 mg/kg/injection, schedule: Q01DX Z (ip), vehicle: carboxymethylcellulose (CMC)): 95 % of control | T/C (dose: 180.0 mg/kg/injection, schedule: Q01DX Z (ip), vehicle: carboxymethylcellulose (CMC)): 104 % of control | T/C (dose: 360.0 mg/kg/injection, schedule: Q01DX Z (ip), vehicle: carboxymethylcellulose (CMC)): 108 % of control

NC(=O)N(CCCl)N=O
T/C (dose: 0.5 mg/kg/injection, schedule: Q01DX010 (ip), vehicle: saline): 162 % of control | T/C [1]: 165 % of control | T/C (dose: 1.0 mg/kg/injection, schedule: Q01DX Z (ip), vehicle: saline): 348 % of control | T/C (dose: 2.0 mg/kg/injection, schedule: Q01DX Z (ip), vehicle: saline): 252 % of control | T/C (dose: 6.0 mg/kg/injection, schedule: Q01DX Z (ip), vehicle: saline): 110 % of control

O=C(Nc1ccc(C2=NCCCN2)cc1)c1ccc(NC(=O)c2ccc(C3=NCCCN3)cc2)cc1
T/C (dose: 2.0 mg/kg/injection, schedule: Q01DX010 (ip), vehicle: other): 110 % of control and 112 % of control | T/C [2]: 123 % of control | T/C [3]: 102 % of control

O=C(Nc1ccc(C2=NCCN2)cc1)c1ccc(C(=O)Nc2ccc(C3=NCCN3)cc2)c([N+](=O)[O-])c1
T/C (dose: 6.0 mg/kg/injection, schedule: Q01DX010 (ip), vehicle: saline): 102 % of control and 108 % of control | T/C [4]: 100 % of control and 113 % of control | T/C (dose: 12.0 mg/kg/injection, schedule: Q01DX010 (ip), vehicle: saline): 112 % of control and 119 % of control | T/C (dose: 18.0 mg/kg/injection, schedule: Q01DX010 (ip), vehicle: saline): 89 % of control and 95 % of control

CCN(CC)c1ccc2cc3ccc(=[N+](CC)CC)cc-3oc2c1
T/C [1]: 98 % of control | T/C (dose: 2.0 mg/kg/injection, schedule: Q01DX010 (ip), vehicle: saline): 91 % of control | T/C (dose: 4.0 mg/kg/injection, schedule: Q01DX010 (ip), vehicle: saline): 96 % of control

O=c1[nH]cc(F)c(=O)[nH]1
T/C (dose: 0.37 mg/kg/injection, schedule: Q01DX Z (ip), vehicle: carboxymethylcellulose (CMC)): 102 % of control | T/C (dose: 0.75 mg/kg/injection, schedule: Q01DX Z (ip), vehicle: carboxymethylcellulose (CMC)): 114 % of control | T/C (dose: 1.5 mg/kg/injection, schedule: Q01DX Z (ip), vehicle: carboxymethylcellulose (CMC)): 117 % of control | T/C [5]: 119 % of control | T/C [6]: 175 % of control | T/C [7]: 119 % of control | T/C [8]: 185 % of control | T/C [9]: 181 % of control and 198 % of control | T/C [10]: 227 % of control | T/C [11]: 104 % of control and 110 % of control | T/C [12]: 94 % of control and 102 % of control

O=C(Nc1ccc(C2=NCCN2)cc1)c1ccc(C(=O)Nc2ccc(C3=NCCN3)cc2)cc1
T/C [2]: 112 % of control and 115 % of control | T/C [3]: 123 % of control and 114 % of control | T/C (dose: 16.0 mg/kg/injection, schedule: Q01DX010 (ip), vehicle: other): 112 % of control and 117 % of control | T/C (dose: 32.0 mg/kg/injection, schedule: Q01DX010 (ip), vehicle: other): 114 % of control and 117 % of control | T/C (dose: 64.0 mg/kg/injection, schedule: Q01DX010 (ip), vehicle: other): 103 % of control and 110 % of control

Cc1cc(N(CCCl)CCCl)ccc1N=Nc1ccccc1C(=O)O
T/C (dose: 0.5 mg/kg/injection, schedule: Q01DX Z (ip), vehicle: carboxymethylcellulose (CMC)): 105 % of control | T/C (dose: 1.0 mg/kg/injection, schedule: Q01DX Z (ip), vehicle: carboxymethylcellulose (CMC)): 102 % of control | T/C (dose: 2.0 mg/kg/injection, schedule: Q01DX Z (ip), vehicle: carboxymethylcellulose (CMC)): 115 % of control | T/C [5]: 108 % of control and 113 % of control | T/C [6]: 111 % of control | T/C [7]: 116 % of control and 120 % of control | T/C [9]: 118 % of control and 119 % of control | T/C [10]: 115 % of control | T/C [13]: 112 % of control | T/C [14]: 100 % of control

Nc1nc(SCc2ccccc2)c2[nH]cnc2n1
T/C [4]: 92 % of control and 104 % of control | T/C [15]: 104 % of control | T/C [16]: 115 % of control | T/C (dose: 62.5 mg/kg/injection, schedule: Q01DX Z (ip), vehicle: carboxymethylcellulose (CMC)): 111 % of control | T/C [17]: 95 % of control and 114 % of control | T/C (dose: 125.0 mg/kg/injection, schedule: Q01DX Z (ip), vehicle: carboxymethylcellulose (CMC)): 107 % of control

O=P1(N(CCCl)CCCl)NCCCO1 (stereo unspecified)
T/C (dose: 5.0 mg/kg/injection, schedule: Q01DX Z (ip), vehicle: saline): 102 % of control | T/C (dose: 10.0 mg/kg/injection, schedule: Q01DX Z (ip), vehicle: saline): 124 % of control | T/C (dose: 15.0 mg/kg/injection, schedule: Q01DX Z (ip), vehicle: saline): 122 % of control | T/C (dose: 25.0 mg/kg/injection, schedule: Q01DX Z (ip), vehicle: saline): 160 % of control | T/C [18]: 200 % of control | T/C (dose: 50.0 mg/kg/injection, schedule: Q01DX Z (ip), vehicle: saline): 166 % of control and 239 % of control | T/C [19]: 102 % of control | T/C (dose: 200.0 mg/kg/injection, schedule: Q01DX Z (ip), vehicle: saline): 100 % of control

N#Cc1cn(C2OC(CO)C(O)C2O)c2ncnc(N)c12 (stereo unspecified)
T/C (dose: 31.3 micrograms/kg/injection, schedule: Q01DX010 (ip), vehicle: saline): 95 % of control | T/C (dose: 62.5 micrograms/kg/injection, schedule: Q01DX010 (ip), vehicle: saline): 99 % of control | T/C (dose: 125.0 micrograms/kg/injection, schedule: Q01DX010 (ip), vehicle: saline): 97 % of control

C[C@H](N)C(=O)N[C@@H]1[C@H]2C(=C(O)C[C@@H](O)[C@@H]2O)C(=O)O[C@@H]1C
T/C (dose: 375.0 mg/kg/injection, schedule: Q01DX Z (ip), vehicle: saline): 156 % of control | T/C (dose: 500.0 mg/kg/injection, schedule: Q01DX Z (ip), vehicle: saline): 170 % of control | T/C (dose: 750.0 mg/kg/injection, schedule: Q01DX Z (ip), vehicle: saline): 202 % of control

C[n+]1ccc(NC(=O)c2ccc(NC(=O)c3cccc(C(=O)Nc4ccc(C(=O)Nc5cc[n+](C)cc5)cc4)c3)cc2)cc1
T/C [5]: 87 % of control | T/C [9]: 116 % of control

c1ccc(CNc2ncnc3[nH]ncc23)cc1
T/C [4]: 102 % of control and 107 % of control | T/C [8]: 97 % of control | T/C [15]: 103 % of control and 114 % of control | T/C [10]: 109 % of control | T/C [16]: 107 % of control | T/C [13]: 116 % of control | T/C [14]: 97 % of control | T/C [17]: 99 % of control and 103 % of control

N#CCSc1ncnc2nc[nH]c12
T/C [10]: 122 % of control | T/C (dose: 30.0 mg/kg/injection, schedule: Q01DX010 (ip), vehicle: saline): 112 % of control and 113 % of control | T/C (dose: 60.0 mg/kg/injection, schedule: Q01DX010 (ip), vehicle: saline): 109 % of control and 115 % of control | T/C [12]: 150 % of control | T/C (dose: 120.0 mg/kg/injection, schedule: Q01DX010 (ip), vehicle: saline): 91 % of control

C[C@H]1C(=O)O[C@@H]2CCN3CC=C(COC(=O)[C@](C)(O)[C@@]1(C)O)[C@H]23
T/C (dose: 3.13 mg/kg/injection, schedule: Q01DX010 (ip), vehicle: saline): 97 % of control | T/C (dose: 6.25 mg/kg/injection, schedule: Q01DX010 (ip), vehicle: saline): 102 % of control | T/C (dose: 12.5 mg/kg/injection, schedule: Q01DX010 (ip), vehicle: saline): 97 % of control and 106 % of control | T/C (dose: 25.0 mg/kg/injection, schedule: Q01DX010 (ip), vehicle: saline): 103 % of control and 106 % of control | T/C [10]: 107 % of control | T/C (dose: 50.0 mg/kg/injection, schedule: Q01DX010 (ip), vehicle: saline): 100 % of control | T/C [14]: 100 % of control | T/C [12]: 119 % of control | T/C (dose: 200.0 mg/kg/injection, schedule: Q01DX Z (ip), vehicle: carboxymethylcellulose (CMC)): 161 % of control

CC1CCOS(=O)O1 (stereo unspecified)
T/C [7]: 95 % of control | T/C [9]: 86 % of control | T/C [18]: 112 % of control | T/C [11]: 87 % of control | T/C [19]: 120 % of control | T/C (dose: 100.0 mg/kg/injection, schedule: Q01DX Z (ip), vehicle: saline): 103 % of control | T/C (dose: 150.0 mg/kg/injection, schedule: Q01DX Z (ip), vehicle: saline): 87 % of control

From PubChem BioAssay AID282 (DTP/NCI, 2004)
